Measured values taken from US20070299032A1, “Method and Composition for Thickening Hair” (Shiseido Company, Ltd., priority 2003, published 2007).

How the values were obtained:
Type in all cases: cell-based
FGF-7 [1] = assay: Increased expression of FGF-7 in human dermal papilla cells by quantitative RT-PCR
Method: The human dermal papilla cells (DPC) used in the experiment consisted of DPC originating in a person that were placed in frozen storage after being isolated and cultured from human scalp provided as a by-product of plastic surgery. […] Only MEM (serum-free) was used for the control cells, and these cells were treated in the same manner. mRNA was extracted from the cultured cells with MagNAPureLC (Roche Diagnostics) at 2, 4, 8 and 24 hours after addition of adenosine followed by cDNA synthesis using the SuperScriptII reverse transcriptase kit (Invitrogen). The expressed amounts of mRNA were compared by real-time PCR using the fluorescent pigment CyberGreen I, which binds to the minor grooves of double-stranded DNA, with the LightCycler-FastStart DNA Master SYBR Green I Kit (Roche Diagnostics) by using the synthesized cDNA as a template. […] This fluorescent intensity reflects the amount of PCR product at that point in time. The amount of expressed gene was hypothesized to be that which is amplified while satisfying Y=A×2^X for the PCR product Y of the initial amount of template A during the exponential amplification period of the PCR product relative to the number of PCR cycles X, and a relative value was calculated from the number of cycles needed to obtain a given amount of PCR product. The following indicates the FGF-7 amplification primers used in this study. An RT-PCR experiment was carried out in the same manner as Experiment 1 with the exception of using two concentrations of adenosine consisting of 10 μM and 100 μM and setting the duration of adenosine treatment to 3 hours. […] The results are shown in FIGS. 4, 5 and 6, respectively.

FGF-7 [2] = assay: Increased expression of FGF-7 in human immortalized dermal papilla cells by quantitative RT-PCR; settings: human immortalized dermal papilla cells (SV40 large T antigen), adenosine, 2 hours, FIG. 8
Method: mRNA was extracted from the cultured cells with MagNAPureLC (Roche Diagnostics) at 2, 4, 8 and 24 hours after addition of adenosine followed by cDNA synthesis using the SuperScriptII reverse transcriptase kit (Invitrogen). The expressed amounts of mRNA were compared by real-time PCR using the fluorescent pigment CyberGreen I, which binds to the minor grooves of double-stranded DNA, with the LightCycler-FastStart DNA Master SYBR Green I Kit (Roche Diagnostics) by using the synthesized cDNA as a template. […] The amount of expressed gene was hypothesized to be that which is amplified while satisfying Y=A×2^X for the PCR product Y of the initial amount of template A during the exponential amplification period of the PCR product relative to the number of PCR cycles X, and a relative value was calculated from the number of cycles needed to obtain a given amount of PCR product. […]

FGF-7 [3] = assay: Increased expression of FGF-7 in human outer root sheath cells by quantitative RT-PCR; settings: adenosine 10 or 100 μM, 3 hours, FIG. 9
Method: The expressed amounts of mRNA were compared by real-time PCR using the fluorescent pigment CyberGreen I, which binds to the minor grooves of double-stranded DNA, with the LightCycler-FastStart DNA Master SYBR Green I Kit (Roche Diagnostics) by using the synthesized cDNA as a template. More specifically, a total volume of 20 μl of reaction liquid (MgCl2: 2 mM, forward and reverse primer: 0.25 μM each) was prepared according to the manual provided using the LightCycler-FastStart DNA Master SYBR Green I Kit (Roche Diagnostics), and a PCR reaction was carried out with the LightCycler (enzyme activation: 95° C./10 minutes; thermal denaturation: 95° C./15 seconds; annealing: 58° C./5 seconds; elongation reaction: 72° C./10 seconds; 40 cycles of thermal denaturation to elongation reaction) followed by monitoring fluorescent intensity at completion of the elongation reaction of each cycle. This fluorescent intensity reflects the amount of PCR product at that point in time. The amount of expressed gene was hypothesized to be that which is amplified while satisfying Y=A×2^X for the PCR product Y of the initial amount of template A during the exponential amplification period of the PCR product relative to the number of PCR cycles X, and a relative value was calculated from the number of cycles needed to obtain a given amount of PCR product. […]

[4] = 100 μM, 2 hours, FIGS. 4, 5 and 6
[5] = CCPA 100 μM, C1-IB-MECA 50 μM, NECA 10 μM, 3 hours, FIG. 3

| Compound | inhibition of increased FGF-7 expression by the adenosine receptor inhibitor 8-SPT (FGF-7 [1]; 100 μM, 2 hours) | expression of FGF-7 (relative amount) (FGF-7 [1]; [4]) | expression of FGF-7 (relative amount) (FGF-7 [1]; [5]) | other results |
| --- | --- | --- | --- | --- |
| Cc1ccc(C2Oc3ccccc3C(=O)C2C)cc1 (stereo not drawn) [3,4′-dimethylflavanone] | not observed | increased expression of FGF-7 |  |  |
| CC1C(=O)c2ccccc2OC1c1ccccc1 (stereo not drawn) [3-methylflavanone] | not observed | increased expression of FGF-7 |  |  |
| OC[C@H]1O[C@@H](n2cnc3c(NC4CCCC4)nc(Cl)nc32)[C@H](O)[C@@H]1O [CCPA, 2-chloro-N^6-cyclopentyladenosine, reference compound] |  |  | significantly increased |  |
| CCNC(=O)[C@H]1O[C@@H](n2cnc3c(N)ncnc32)[C@H](O)[C@@H]1O [NECA, N-ethylcarboxyamidoadenosine, reference compound] |  |  | significantly increased |  |
| Nc1ncnc2c1ncn2[C@@H]1O[C@H](CO)[C@@H](O)[C@H]1O [adenosine] |  |  |  | expression of FGF-7 (relative amount) (FGF-7 [2]): increased expression of FGF-7; expression of FGF-7 (relative amount) (FGF-7 [1]; adenosine 10 μM and 100 μM, 3 hours, FIG. 2): increase dependent on the concentration of adenosine; expression of FGF-7 (relative value) (FGF-7 [1]; adenosine 100 μM, mRNA at 2, 4, 8 and 24 hours, FIG. 1): increased considerably; expression of FGF-7 (relative amount) (FGF-7 [3]): prominent increase in expression of FGF-7 |
| O=C1CC(c2ccccc2)Oc2ccccc21 (stereo not drawn) [flavanone, reference compound] | not observed | increased expression of FGF-7 |  |  |
